The values that follow come from ChEMBL document CHEMBL2424658, “Design, synthesis, and evaluation of novel 1-methyl-3-substituted quinazoline-2,4-dione derivatives as antimicrobial agents” (2013).

Each structure is given as a SMILES string. Converted amounts (≈) assume the structure as drawn.

Type in all cases: functional
The test system of assay [1] is Cryptococcus neoformans. Kind of assay: Antifungal activity against Cryptococcus neoformans after overnight incubation by […] method. For orientation: A growth-free zone around the sample is the usual read-out of agar diffusion tests.
For assay [2], the system named is Staphylococcus aureus. Briefly: Antibacterial activity against Staphylococcus aureus ATCC 25923 after overnight incubation by […] method.
The test system of assay [3] is Candida. Kind of assay: Antifungal activity against Candida mycoderma after overnight incubation by […] method.
The test system of assay [4] is Candida albicans. Briefly: Antifungal activity against Candida albicans ATCC 76615 after overnight incubation by […] method.
Assay [5] has as its system Bacillus subtilis. Kind of assay: Antibacterial activity against Bacillus subtilis ATCC 6633 after overnight incubation by […] method.
Assay [6] deals with Escherichia coli. Briefly: Antibacterial activity against Escherichia coli JM 109 after overnight incubation by […] method.
For assay [7], the system named is Pseudomonas aeruginosa. Briefly: Antibacterial activity against Pseudomonas aeruginosa CR 56 after overnight incubation by […] method.
The test system of assay [8] is Bacillus. Briefly: Antibacterial activity against Bacillus proteus after overnight incubation by […] method.
For assay [9], the system named is Staphylococcus aureus. Briefly: Antibacterial activity against methicillin-resistant Staphylococcus aureus N315 after overnight incubation by […] method.
Assay [10] has as its system Aspergillus flavus. Kind of assay: Antifungal activity against Aspergillus flavus 3905 after overnight incubation by […] method.
For assay [11], the system named is Saccharomyces cerevisiae. Kind of assay: Antifungal activity against Saccharomyces cerevisiae CGMCC2.145 after overnight incubation by […] method.

Broadly, the MIC is the least concentration at which growth counts as inhibited. A low value points to a more susceptible organism.

As to `Cn1c(=O)n(CCOC(=O)CNC(=O)c2cccc(F)c2)c(=O)c2ccccc21`, the MIC in [1] worked out at 256 µg/mL (≈ 641 µM); in assay [2] it was 128 µg/mL (≈ 320 µM); in [3], 512 µg/mL (≈ 1280 µM); in assay [4], 16 µg/mL (≈ 40.1 µM); in assay [5], 256 µg/mL (≈ 641 µM); in assay [6] it was 128 µg/mL (≈ 320 µM). For the same molecule, the MIC came to 128 µg/mL (≈ 320 µM) in assay [7], 512 µg/mL (≈ 1280 µM) in assay [8], 32 µg/mL (≈ 80.1 µM) in assay [9] and 64 µg/mL (≈ 160 µM) in assay [10].

With `Cn1c(=O)n(CCOC(=O)CNC(=O)c2ccc(F)cc2)c(=O)c2ccccc21`, the MIC worked out at 16 µg/mL (≈ 40.1 µM) in [1]; 256 µg/mL (≈ 641 µM) in assay [2]; 64 µg/mL (≈ 160 µM) in assay [3]; 32 µg/mL (≈ 80.1 µM) in assay [4]; 128 µg/mL (≈ 320 µM) in [5]; 64 µg/mL (≈ 160 µM) in [6]. The MIC in assay [7] turned out to be 256 µg/mL (≈ 641 µM); in [8], 512 µg/mL (≈ 1280 µM); in assay [9] it was 4 µg/mL (≈ 10 µM); in [10], 64 µg/mL (≈ 160 µM).

With `Cn1c(=O)n(CCOC(=O)CNC(=O)c2ccccc2Cl)c(=O)c2ccccc21`, the MIC in assay [1] amounted to 128 µg/mL (≈ 308 µM); in assay [2], 512 µg/mL (≈ 1230 µM); in assay [3], 64 µg/mL (≈ 154 µM); in [4], 32 µg/mL (≈ 77 µM); in [5], 64 µg/mL (≈ 154 µM); in assay [6], 512 µg/mL (≈ 1230 µM). Also, the MIC was 128 µg/mL (≈ 308 µM) in assay [7], 128 µg/mL (≈ 308 µM) in assay [8], greater than 512 µg/mL in assay [9] and 128 µg/mL (≈ 308 µM) in assay [10].

For the molecule `Cc1ccccc1C(=O)NCC(=O)OCCn1c(=O)c2ccccc2n(C)c1=O`, the MIC in assay [1] amounted to 16 µg/mL (≈ 40.5 µM); in [2], 512 µg/mL (≈ 1290 µM); in [3], 512 µg/mL (≈ 1290 µM); in assay [4], 512 µg/mL (≈ 1290 µM); in assay [5] it was 64 µg/mL (≈ 162 µM); in assay [6] it was 32 µg/mL (≈ 80.9 µM). Further, the minimal inhibitory concentration (MIC) in [7] was determined as 256 µg/mL (≈ 647 µM); in assay [8], 32 µg/mL (≈ 80.9 µM); in assay [9], 32 µg/mL (≈ 80.9 µM); in assay [10], 128 µg/mL (≈ 324 µM).

For the molecule `Cn1c(=O)n(CCOC(=O)CNC(=O)c2ccc([N+](=O)[O-])cc2)c(=O)c2ccccc21`, the minimal inhibitory concentration (MIC) was 256 µg/mL (≈ 600 µM) in [2]; 64 µg/mL (≈ 150 µM) in assay [3]; 512 µg/mL (≈ 1200 µM) in [4]; 512 µg/mL (≈ 1200 µM) in [5]; 128 µg/mL (≈ 300 µM) in [6]; 64 µg/mL (≈ 150 µM) in assay [7]. Further, the values for the MIC in assay [8] and in assay [9] were 128 µg/mL (≈ 300 µM) and 8 µg/mL (≈ 18.8 µM), respectively.

For the molecule `COc1ccc(C(=O)NCC(=O)OCCn2c(=O)c3ccccc3n(C)c2=O)cc1`, the MIC in assay [1] was found to be 32 µg/mL (≈ 77.8 µM); in assay [2] it was 512 µg/mL (≈ 1240 µM); in assay [3], 512 µg/mL (≈ 1240 µM); in assay [4], 32 µg/mL (≈ 77.8 µM); in assay [5], 4 µg/mL (≈ 9.72 µM); in [6], 512 µg/mL (≈ 1240 µM). For the same molecule, the MIC in assay [7] stood at 128 µg/mL (≈ 311 µM); in [8] it was 512 µg/mL (≈ 1240 µM); in [9], 256 µg/mL (≈ 622 µM); in assay [10] it was 128 µg/mL (≈ 311 µM).

Turning to `Cc1ccc(C(=O)NCC(=O)OCCn2c(=O)c3ccccc3n(C)c2=O)cc1`, the MIC in assay [1] came out at 16 µg/mL (≈ 40.5 µM); in assay [2], 512 µg/mL (≈ 1290 µM); in assay [3] it was 512 µg/mL (≈ 1290 µM); in assay [4] it was 32 µg/mL (≈ 80.9 µM); in assay [5] it was 64 µg/mL (≈ 162 µM); in assay [6] it was 512 µg/mL (≈ 1290 µM). For the same molecule, the MIC in [7] was 128 µg/mL (≈ 324 µM); in [8] it was 32 µg/mL (≈ 80.9 µM); in assay [9], 512 µg/mL (≈ 1290 µM); in assay [10], 64 µg/mL (≈ 162 µM).

With `Cn1c(=O)n(CCOC(=O)CNC(=O)c2cccc([N+](=O)[O-])c2)c(=O)c2ccccc21`, the MIC was 128 µg/mL (≈ 300 µM) in assay [1]; 128 µg/mL (≈ 300 µM) in [2]; 16 µg/mL (≈ 37.5 µM) in assay [3]; 64 µg/mL (≈ 150 µM) in assay [4]; 256 µg/mL (≈ 600 µM) in assay [5]; 16 µg/mL (≈ 37.5 µM) in [6]. Further, the MIC is 512 µg/mL (≈ 1200 µM) in assay [7], 128 µg/mL (≈ 300 µM) in [8], 4 µg/mL (≈ 9.38 µM) in assay [9] and 64 µg/mL (≈ 150 µM) in assay [10].

For `Cn1c(=O)n(CCOC(=O)CNC(=O)c2ccc(Cl)cc2)c(=O)c2ccccc21`, the MIC in assay [1] is 32 µg/mL (≈ 77 µM); in assay [2] it was 128 µg/mL (≈ 308 µM); in assay [3] it was 512 µg/mL (≈ 1230 µM); in assay [4], 64 µg/mL (≈ 154 µM); in assay [5] it was 128 µg/mL (≈ 308 µM); in assay [6] it was 256 µg/mL (≈ 616 µM). Besides, the MIC turned out to be 256 µg/mL (≈ 616 µM) in [7], 256 µg/mL (≈ 616 µM) in assay [8], 512 µg/mL (≈ 1230 µM) in assay [9] and 32 µg/mL (≈ 77 µM) in assay [10].

For `Cn1c(=O)n(CCOC(=O)CNC(=O)c2ccco2)c(=O)c2ccccc21`, the minimum inhibitory concentration (MIC) amounted to 128 µg/mL (≈ 345 µM) in assay [1]; 256 µg/mL (≈ 689 µM) in [2]; 64 µg/mL (≈ 172 µM) in [3]; 32 µg/mL (≈ 86.2 µM) in [4]; 4 µg/mL (≈ 10.8 µM) in assay [5]; 4 µg/mL (≈ 10.8 µM) in [6]. In addition, the MIC is 128 µg/mL (≈ 345 µM) in assay [7], 128 µg/mL (≈ 345 µM) in assay [8], greater than 512 µg/mL in assay [9] and 64 µg/mL (≈ 172 µM) in assay [10].

Turning to `Cn1c(=O)n(CCOC(=O)CNC(=O)c2cccs2)c(=O)c2ccccc21`, the MIC was determined as 256 µg/mL (≈ 661 µM) in [1]; 512 µg/mL (≈ 1320 µM) in [2]; 512 µg/mL (≈ 1320 µM) in assay [3]; 512 µg/mL (≈ 1320 µM) in assay [4]; 32 µg/mL (≈ 82.6 µM) in assay [5]; 64 µg/mL (≈ 165 µM) in [6]. The MIC in assay [7] is 64 µg/mL (≈ 165 µM); in assay [8], 64 µg/mL (≈ 165 µM); in assay [9] it was 32 µg/mL (≈ 82.6 µM); in [10], 64 µg/mL (≈ 165 µM).

For `Cn1c(=O)n(CCOC(=O)CNC(=O)/C=C\c2ccccc2)c(=O)c2ccccc21`, the minimal inhibitory concentration (MIC) turned out to be 8 µg/mL (≈ 19.6 µM) in assay [1]; 128 µg/mL (≈ 314 µM) in assay [2]; 512 µg/mL (≈ 1260 µM) in [3]; 512 µg/mL (≈ 1260 µM) in assay [4]; 4 µg/mL (≈ 9.82 µM) in assay [5]; 16 µg/mL (≈ 39.3 µM) in assay [6]. For the same molecule, the MIC in assay [7] was greater than 512 µg/mL; in [8] it was 256 µg/mL (≈ 628 µM); in assay [9] it was 4 µg/mL (≈ 9.82 µM); in assay [10] it was 32 µg/mL (≈ 78.5 µM).

In the case of `NC(=O)OC[C@H](O)[C@@H](O)[C@H](N)C(=O)N[C@H](C(=O)O)[C@H]1O[C@@H](n2cc(C(=O)O)c(=O)[nH]c2=O)[C@H](O)[C@@H]1O`, the MIC in [1] was 0.0312 µg/mL (≈ 0.0599 µM); in assay [11], 16 µg/mL (≈ 30.7 µM); in assay [3], 8 µg/mL (≈ 15.3 µM); in assay [4] it was 32 µg/mL (≈ 61.4 µM); in assay [10], 32 µg/mL (≈ 61.4 µM).

On to `Cn1c(=O)n(CCOC(=O)CNC(=O)c2ccccc2)c(=O)c2ccccc21`, for which the MIC in [1] was 32 µg/mL (≈ 83.9 µM); in [2], 256 µg/mL (≈ 671 µM); in assay [3], greater than 512 µg/mL; in [4], 512 µg/mL (≈ 1340 µM); in [5] it was 512 µg/mL (≈ 1340 µM); in assay [6], 128 µg/mL (≈ 336 µM). For the same molecule, the MIC in assay [7] was greater than 512 µg/mL; in assay [8] it was greater than 512 µg/mL; in [9] it was greater than 512 µg/mL; in assay [10], 64 µg/mL (≈ 168 µM).

On to `OC(Cn1cncn1)(Cn1cncn1)c1ccc(F)cc1F` [FLUCONAZOLE], for which the MIC in assay [1] is 0.0312 µg/mL (≈ 0.102 µM); in assay [11], greater than 512 µg/mL; in [3], 8 µg/mL (≈ 26.1 µM); in assay [4], 16 µg/mL (≈ 52.2 µM); in assay [10], 64 µg/mL (≈ 209 µM).

For the molecule `CN[C@@H]1[C@H](O[C@H]2[C@H](O[C@H]3[C@H](O)[C@@H](O)[C@H](N=C(N)N)[C@@H](O)[C@@H]3N=C(N)N)O[C@@H](C)[C@]2(O)C=O)O[C@@H](CO)[C@H](O)[C@H]1O` [STREPTOMYCIN], the MIC was 32 µg/mL (≈ 55 µM) in [2]; 32 µg/mL (≈ 55 µM) in assay [5]; 64 µg/mL (≈ 110 µM) in assay [6]; 64 µg/mL (≈ 110 µM) in [7]; 16 µg/mL (≈ 27.5 µM) in [8]; greater than 512 µg/mL in [9].
